The values below come from US11033596B2, “Antioxidant, anti-inflammatory compositions and uses thereof” (Malaysian Palm Oil Board, priority 2017, dated 2021).

One assay has as its system RAW macrophages. As to the kind of experiment: Cell-based NO2- scavenging activity (Griess assay, RAW macrophages). The following applies: for Actual % inhibition of ROS / % inhibition of ROS in comparison to Oil Palm phenolics (± S.E): Table 2; for Actual % inhibition of ROS: each component added at the concentration present in 800 μg/mL OPP; for % inhibition of ROS in comparison to Oil Palm phenolics (± S.E): relative to OPP 800 μg/mL = 100; for Enhancement of anti-inflammatory and anti-oxidative activity of other components / Inhibitory action / nitrite scavenging activity (in words): cell-based Griess assay. As for the experimental part:
FIG. 1 is a graphical representation of the biological enhancement of chemical combination of major compounds of Oil Palm phenolics in cell-based NO2^− scavenging activity (Griess assay, RAW macrophages, Mean±SE).
FIG. 1 and Table 2 show the synergistic effect of the composition in cell based nitrite scavenging activity.
For the study, PH435 composition was prepared according to the concentration present in 800 μg/mL of Oil Palm Phenolics.

For a further assay, the system named is Red blood cells. Kind of assay: Cell-based antioxidant protection in erythrocytes (CAP-e assay), ROS scavenging. The following applies: for Effect on reducing ROS / inhibitory action (in words): RBC cells; for Actual % inhibition of ROS: each component added at the concentration present in 10 mg/mL OPP; for % inhibition of ROS in comparison to Oil Palm phenolics (±S.E.): relative to OPP 10 mg/mL = 100. An excerpt:
H2O2 Measurement (Cell-Based Antioxidant Protection in Erythrocytes CAP-e Assay)
Red blood cells can be used as a cellular model to quantify reactive oxygen species (ROS). As these cells lose their nuclei at the erythroblast stage, they cannot perform transcription and translation for bringing about genetic and protein level changes.

Assay [1] in a line: Chemical-based ORAC assay.
Assay [2] in a line: Nitrite measurement (sodium nitroprusside, SNP assay), chemical system. The following applies: for Inhibition of the nitrite ion (in words): chemical system. An excerpt: Nitrite Measurement (Sodium Nitroprusside—SNP Assay)
SNP in aqueous solution at physiological pH spontaneously generates nitric oxide, which interacts with oxygen to produce a nitrite ion that can be estimated by using griess reagent.

The test system of assay [3] is Granulocytes/polymorphonuclear (PMN) cells. As to the kind of experiment: H2O2 measurement, cell-based antioxidant protection in granulocytes/polymorphonuclear (PMN) cells assay. An excerpt:
H2O2 Measurement (Cell-Based Antioxidant Protection in Granulocytesipolymorphonuclear—PMN Cells Assay)

Take `O=C(/C=C/c1ccc(O)c(O)c1)O[C@@H]1C=C(C(=O)O)C[C@@H](O)[C@@H]1O` [3-Caffeoylshikimic acid, 3-caffeoylshikimic acid]: in the assay on RAW macrophages, the “Actual % inhibition of ROS” value is 12.3% and the “% inhibition of ROS in comparison to Oil Palm phenolics (± S.E)” value (shortened to “% inhibition of ROS in comparison … (± S.E)”) was 18.6(±2.3) %.

As to `O=C(O)C1=CC(=O)[C@@H](O)[C@H](O)C1` [3-dehydroshikimic acid], in the assay with Red blood cells, the “Effect on reducing ROS / inhibitory action (in words)” value was “shows inhibitory action”, the “Actual % inhibition of ROS” value stood at 9.9% and the “% inhibition of ROS in comparison to Oil Palm phenolics (±S.E.)” value (from here on “% inhibition of ROS in comparison … (±S.E.)”) is recorded as 13.4 (±0.05) %. Besides, in the assay on Red blood cells (chemical combination versus mathematical sum), the “Synergy / enhancement effect of the combination on ROS inhibition” value was “enhancement effect could be seen”. Also, the Enhancement effect entry in assay [1] is “enhancement effect could be seen”. Further, in the assay with RAW macrophages, the “Enhancement of anti-inflammatory and anti-oxidative activity of other components” value (shortened to “Enhancement … of other components”) is listed as “enhancement effect could be seen”; the “Inhibitory action / nitrite scavenging activity (in words)” value is listed as “shows inhibitory action”. Moreover, the “Inhibition of the nitrite ion (in words)” value in assay [2] was “low inhibition”. Moreover, the “Inhibition of the nitrite ion (in words)” value in assay [2] (listed as 3-dehydroshikirnic acid) is reported as “shows inhibitory action”.

With `O=C(/C=C/c1ccc(O)c(O)c1)O[C@@H]1[C@H](O)C=C(C(=O)O)C[C@H]1O` [4-Caffeoylshikimic acid, 4-caffeoylshikimic acid], in the assay with RAW macrophages, the “Actual % inhibition of ROS” value worked out at 8.4% and the “% inhibition of ROS in comparison … (± S.E)” value is 12.7(±2.5) %.

As for `O=C(/C=C/c1ccc(O)c(O)c1)O[C@@H]1CC(C(=O)O)=C[C@@H](O)[C@H]1O` [5-Caffeoylshikimic acid, 5-caffeoylshikimic acid], in the assay on RAW macrophages, the “Actual % inhibition of ROS” value was found to be 8.8% and the “% inhibition of ROS in comparison … (± S.E)” value is recorded as 13.4(±3.7) %.

For `O=C(O)c1ccc(O)c(O)c1` [Protocatechuic acid], in the assay with RAW macrophages, the “Actual % inhibition of ROS” value amounted to 8.6% and the “% inhibition of ROS in comparison … (± S.E)” value was 13 (±0.7) %.

Regarding `O=C(O)C1=C[C@@H](O)[C@@H](O)[C@H](O)C1` [Shikimic acid], in the assay with Red blood cells, the “Effect on reducing ROS / inhibitory action (in words)” value is “shows no activity”, the “Actual % inhibition of ROS” value is recorded as “-Not detected-” and the “% inhibition of ROS in comparison … (±S.E.)” value is “-Not detected-”. The “Effect on reducing ROS / inhibitory action (in words)” value with Red blood cells (listed as shikimic acid) is “does not show any effect”. For the same compound, in assay [3], the “Enhancement … of other components” value is “able to enhance”; the “Inhibitory action (in words)” value is reported as “shows inhibitory action”. In the assay with RAW macrophages, the “Actual % inhibition of ROS” value came to 3.4%; the “% inhibition of ROS in comparison … (± S.E)” value is reported as 5.2 (±0.7) %; the “Enhancement … of other components” value is recorded as “able to enhance”; the “Inhibitory action / nitrite scavenging activity (in words)” value is “shows inhibitory action”. In addition, in assay [2] (added along with p-hydroxybenzoic acid), the “Enhancement of nitrite inhibition when added with other components” value is listed as “does not show any enhancement”. Moreover, in assay [2], the “Inhibition of the nitrite ion (in words)” value is given as “shows inhibitory action”. Further, in assay [2] (listed as shikimic acid), the “Inhibition of the nitrite ion (in words)” value is recorded as “low inhibition”.

On to `O=C(O)c1ccc(O)cc1` [p-hydoxybenzoic acid], for which, in the assay on Red blood cells, the “Actual % inhibition of ROS” value is listed as 22.5% and the “% inhibition of ROS in comparison … (±S.E.)” value is given as 30.6 (±0.2) %. Also, in the assay on RAW macrophages, the “Actual % inhibition of ROS” value came to 11.4% and the “% inhibition of ROS in comparison … (± S.E)” value was 17.3(±2.8) %.

With caffeoylshikimic acid, in the assay with Red blood cells, the “Actual % inhibition of ROS” value amounted to 25.9% and the “% inhibition of ROS in comparison … (±S.E.)” value was 35.2(±0.1) %.
